# In ChEMBL document CHEMBL1201861, “Genomics of Drug Sensitity in Cancer screening data, Wellcome Trust Sanger Institute”:
# Experiments:
# Experiment in all cases: cells
# [1] = test system: C-33-A; format: functional, cell-based; details: Homo sapiens;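 further: cell viability assay measuring growth inhibition of C-33-A cells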
# Description: SANGER: Inhibition of human C-33-A cell growth in a cell viability assay.
# [2] = test system: COLO-680N; format: functional, cell-based; details: Homo sapiens;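 further: cell viability assay used to measure inhibition of COLO-680N cell growth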
# Description: SANGER: Inhibition of human COLO-680N cell growth in a cell viability assay.
# [3] = test system: Capan-2; format: functional, cell-based; details: Homo sapiens;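 further: Capan-2 cell growth inhibition, read out with a viability assay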
# Description: SANGER: Inhibition of human Capan-2 cell growth in a cell viability assay.
# [4] = test system: HuP-T4; format: functional, cell-based; details: Homo sapiens;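 further: cell viability assay measuring how much HuP-T4 cell growth is inhibited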
# Description: SANGER: Inhibition of human HuP-T4 cell growth in a cell viability assay.
# [5] = test system: 23132-87; format: functional, cell-based; details: Homo sapiens
# Description: SANGER: Inhibition of human 23132-87 cell growth in a cell viability assay.
# [6] = test system: U2OS; format: functional, cell-based, U-2-OS; details: Homo sapiens;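 further: growth inhibition of human U-2-OS cells, determined with a cell viability assay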
# Description: SANGER: Inhibition of human U-2-OS cell growth in a cell viability assay.
# [7] = test system: COLO-792; format: functional, cell-based; details: Homo sapiens
# Description: SANGER: Inhibition of human COLO-792 cell growth in a cell viability assay.
# [8] = test system: HEC-1; format: functional, cell-based; details: Homo sapiens;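 further: growth inhibition of the cell line, read out with a cell viability assay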
# Description: SANGER: Inhibition of human HEC-1 cell growth in a cell viability assay.
# [9] = test system: UACC-893; format: functional, cell-based; details: Homo sapiens
# Description: SANGER: Inhibition of human UACC-893 cell growth in a cell viability assay.
# [10] = test system: KYSE-520 cell line; format: functional, cell-based; details: Homo sapiens;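 further: growth inhibition of human KYSE-520 cells, read out with a viability assay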
# Description: SANGER: Inhibition of human KYSE-520 cell growth in a cell viability assay.
# [11] = test system: PC-14; format: functional, cell-based; details: Homo sapiens;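 further: cell viability assay measuring inhibition of PC-14 cell growth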
# Description: SANGER: Inhibition of human PC-14 cell growth in a cell viability assay.
# [12] = test system: KP-N-YN; format: functional, cell-based; details: Homo sapiens;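 further: growth inhibition of KP-N-YN cells, read out with a cell viability assay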
# Description: SANGER: Inhibition of human KP-N-YN cell growth in a cell viability assay.
# [13] = test system: DMS-79; format: functional, cell-based, Homo sapiens; details: Homo sapiens, DMS-79;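 further: growth inhibition measured with a cell viability assay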
# Description: SANGER: Inhibition of human DMS-79 cell growth in a cell viability assay.
# [14] = test system: HLE; format: functional, cell-based; details: Homo sapiens;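 further: growth inhibition of human HLE cells, read out by a cell viability assay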
# Description: SANGER: Inhibition of human HLE cell growth in a cell viability assay.
# [15] = test system: SAS; format: functional, cell-based; details: Homo sapiens;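 further: growth inhibition of SAS cells, read out with a cell viability assay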
# Description: SANGER: Inhibition of human SAS cell growth in a cell viability assay.
# [16] = test system: SW1710; format: functional, cell-based; details: Homo sapiens;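 further: growth inhibition of SW1710 cells, determined with a cell viability assay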
# Description: SANGER: Inhibition of human SW1710 cell growth in a cell viability assay.
# [17] = test system: A-431; format: functional, cell-based; details: Homo sapiens;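 further: growth inhibition of A-431 cells, determined with a cell viability read-out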
# Description: SANGER: Inhibition of human A431 cell growth in a cell viability assay.
# [18] = test system: 769-P; format: functional, cell-based; details: Homo sapiens
# Description: SANGER: Inhibition of human 769-P cell growth in a cell viability assay.
# [19] = test system: OE33; format: functional, cell-based; details: Homo sapiens;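 further: growth inhibition of human OE33 cells, measured by a cell viability assay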
# Description: SANGER: Inhibition of human OE33 cell growth in a cell viability assay.
# [20] = test system: A-375; format: functional, cell-based; details: Homo sapiens;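 further: growth inhibition of A375 cells, read out with a cell viability assay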
# Description: SANGER: Inhibition of human A375 cell growth in a cell viability assay.
# [21] = test system: YAPC; format: functional, cell-based; details: Homo sapiens;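 further: growth inhibition of YAPC cells, measured with a cell viability assay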
# Description: SANGER: Inhibition of human YAPC cell growth in a cell viability assay.
# [22] = test system: 639-V; format: functional, cell-based; details: Homo sapiens;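 further: growth inhibition of 639-V cells, read out with a cell viability assay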
# Description: SANGER: Inhibition of human 639-V cell growth in a cell viability assay.
# [23] = test system: OAW-28; format: functional, cell-based; details: Homo sapiens;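 further: growth inhibition of OAW-28 cells, read out with a cell viability assay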
# Description: SANGER: Inhibition of human OAW-28 cell growth in a cell viability assay.
# [24] = test system: COLO-679; format: functional, cell-based; details: Homo sapiens
# Description: SANGER: Inhibition of human COLO-679 cell growth in a cell viability assay.
# [25] = test system: COR-L23; format: functional, cell-based; details: Homo sapiens;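 further: cell viability assay measuring how strongly compounds suppress growth of COR-L23 cells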
# Description: SANGER: Inhibition of human COR-L23 cell growth in a cell viability assay.
# [26] = test system: NCI-H1693; format: functional, cell-based; details: Homo sapiens;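 further: growth inhibition of the human cell line, read out with a cell viability assay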
# Description: SANGER: Inhibition of human NCI-H1693 cell growth in a cell viability assay.
# [27] = test system: NCI-H2170; format: functional, cell-based; details: Homo sapiens;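 further: cell viability assay measuring growth inhibition of human NCI-H2170 cancer cells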
# Description: SANGER: Inhibition of human NCI-H2170 cell growth in a cell viability assay.
# [28] = test system: SW626; format: functional, cell-based; details: Homo sapiens;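 further: growth inhibition of SW626 cells, measured with a cell viability assay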
# Description: SANGER: Inhibition of human SW626 cell growth in a cell viability assay.
# [29] = test system: LB373-MEL-D; format: functional, cell-based, Homo sapiens; details: Homo sapiens, LB373-MEL-D;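 further: growth inhibition of the cell line, read out in a cell viability assay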
# Description: SANGER: Inhibition of human LB373-MEL-D cell growth in a cell viability assay.
# [30] = test system: KU-19-19; format: functional, cell-based; details: Homo sapiens
# Description: SANGER: Inhibition of human KU-19-19 cell growth in a cell viability assay.
# [31] = test system: HCC1806; format: functional, cell-based; details: Homo sapiens;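 further: growth inhibition of the cancer cell line, determined with a cell viability assay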
# Description: SANGER: Inhibition of human HCC1806 cell growth in a cell viability assay.
# [32] = test system: MHH-ES-1; format: functional, cell-based; details: Homo sapiens;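 further: cell growth inhibition measured by a cell viability assay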
# Description: SANGER: Inhibition of human MHH-ES-1 cell growth in a cell viability assay.
# [33] = test system: SKG-IIIa; format: functional, cell-based; details: Homo sapiens;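 further: cell growth inhibition, read out with a cell viability assay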
# Description: SANGER: Inhibition of human SKG-IIIa cell growth in a cell viability assay.
# [34] = test system: PFSK-1; format: functional, cell-based; details: Homo sapiens;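 further: cell viability assay measuring how strongly compounds suppress growth of human PFSK-1 cells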
# Description: SANGER: Inhibition of human PFSK-1 cell growth in a cell viability assay.
# [35] = test system: LU-99A; format: functional, cell-based; details: Homo sapiens;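 further: growth inhibition of LU-99A cells, read out with a cell viability assay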
# Description: SANGER: Inhibition of human LU-99A cell growth in a cell viability assay.
# [36] = test system: HCC 2998; format: functional, cell-based; details: Homo sapiens;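 further: growth inhibition of human HCC2998 cells, measured with a cell viability read-out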
# Description: SANGER: Inhibition of human HCC2998 cell growth in a cell viability assay.
# [37] = test system: MDA-MB-157; format: functional, cell-based; details: Homo sapiens
# Description: SANGER: Inhibition of human MDA-MB-157 cell growth in a cell viability assay.
# [38] = test system: SBC-5; format: functional, cell-based; details: Homo sapiens;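 further: cell viability assay read-out, IC50 is the concentration that inhibits growth of the cells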
# Description: SANGER: Inhibition of human SBC-5 cell growth in a cell viability assay.
# [39] = test system: CAL-39; format: functional, cell-based; details: Homo sapiens;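 further: cell viability assay measuring growth inhibition of CAL-39 cells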
# Description: SANGER: Inhibition of human CAL-39 cell growth in a cell viability assay.
# [40] = test system: Huh-7; format: functional, cell-based; details: Homo sapiens;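 further: HuH-7 cell growth inhibition, read out with a cell viability assay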
# Description: SANGER: Inhibition of human HuH-7 cell growth in a cell viability assay.
# [41] = test system: 786-0; format: functional, cell-based; details: Homo sapiens
# Description: SANGER: Inhibition of human 786-0 cell growth in a cell viability assay.
# [42] = test system: LoVo; format: functional, cell-based; details: Homo sapiens;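 further: growth inhibition of human LoVo cells, read out with a cell viability assay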
# Description: SANGER: Inhibition of human LoVo cell growth in a cell viability assay.
# [43] = test system: CaR-1; format: functional, cell-based; details: Homo sapiens;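 further: growth inhibition of human CaR-1 cancer cells, read out with a cell viability assay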
# Description: SANGER: Inhibition of human CaR-1 cell growth in a cell viability assay.
smiles,measurement,setting,value
CC1=C(/C=C/C(C)=C/C=C/C(C)=C/C(=O)O)C(C)(C)CCC1 [TRETINOIN],IC50,[1],> 10000 nM
same,IC50,[2],> 10000 nM
same,IC50,[3],> 10000 nM
same,IC50,[4],> 10000 nM
same,IC50,[5],> 10000 nM
same,IC50,[6],> 10000 nM
same,IC50,[7],> 10000 nM
same,IC50,[8],> 10000 nM
same,IC50,[9],> 10000 nM
same,IC50,[10],> 10000 nM
same,IC50,[11],> 10000 nM
same,IC50,[12],> 10000 nM
same,IC50,[13],> 10000 nM
same,IC50,[14],> 10000 nM
same,IC50,[15],> 10000 nM
same,IC50,[16],> 10000 nM
same,IC50,[17],> 10000 nM
same,IC50,[18],> 10000 nM
same,IC50,[19],> 10000 nM
same,IC50,[20],> 10000 nM
same,IC50,[21],> 10000 nM
same,IC50,[22],> 10000 nM
same,IC50,[23],> 10000 nM
same,IC50,[24],> 10000 nM
same,IC50,[25],> 10000 nM
same,IC50,[26],> 10000 nM
same,IC50,[27],> 10000 nM
same,IC50,[28],> 10000 nM
same,IC50,[29],> 10000 nM
same,IC50,[30],> 10000 nM
same,IC50,[31],729 nM
same,IC50,[32],> 10000 nM
same,IC50,[33],> 10000 nM
same,IC50,[34],> 10000 nM
same,IC50,[35],> 10000 nM
same,IC50,[36],> 10000 nM
same,IC50,[37],> 10000 nM
same,IC50,[38],> 10000 nM
same,IC50,[39],> 10000 nM
same,IC50,[40],> 10000 nM
same,IC50,[41],> 10000 nM
same,IC50,[42],> 10000 nM
same,IC50,[43],> 10000 nM
NC(=O)Nc1cc(-c2cccc(F)c2)sc1C(=O)N[C@H]1CCCNC1 [AZD-7762],IC50,[1],862 nM
same,IC50,[2],> 2000 nM
same,IC50,[3],> 2000 nM
same,IC50,[4],469 nM
same,IC50,[5],683 nM
same,IC50,[6],158 nM
same,IC50,[7],> 2000 nM
same,IC50,[8],814 nM
same,IC50,[9],> 2000 nM
same,IC50,[10],826 nM
same,IC50,[11],417 nM
same,IC50,[12],349 nM
same,IC50,[13],> 2000 nM
same,IC50,[14],> 2000 nM
same,IC50,[15],1270 nM
same,IC50,[16],640 nM
same,IC50,[17],925 nM
same,IC50,[18],223 nM
same,IC50,[19],391 nM
same,IC50,[20],499 nM
same,IC50,[21],> 2000 nM
same,IC50,[22],1170 nM
same,IC50,[23],1850 nM
same,IC50,[24],90.9 nM
same,IC50,[25],403 nM
same,IC50,[26],1230 nM
same,IC50,[27],1520 nM
same,IC50,[28],506 nM
same,IC50,[29],> 2000 nM
same,IC50,[30],> 2000 nM
same,IC50,[31],40.2 nM
same,IC50,[32],> 2000 nM
same,IC50,[33],650 nM
same,IC50,[34],411 nM
same,IC50,[35],> 2000 nM
same,IC50,[36],317 nM
same,IC50,[37],86.6 nM
same,IC50,[38],513 nM
same,IC50,[39],> 2000 nM
same,IC50,[40],1400 nM
same,IC50,[41],388 nM
same,IC50,[42],162 nM
same,IC50,[43],1870 nM
NC(=O)c1ccc(N(C(N)=O)c2c(F)cccc2F)nc1-c1ccc(F)cc1F [VX-702],IC50,[1],> 2000 nM
same,IC50,[2],> 2000 nM
same,IC50,[3],> 2000 nM
same,IC50,[4],> 2000 nM
same,IC50,[5],> 2000 nM
same,IC50,[6],> 2000 nM
same,IC50,[7],> 2000 nM
same,IC50,[8],> 2000 nM
same,IC50,[9],> 2000 nM
same,IC50,[10],> 2000 nM
same,IC50,[11],> 2000 nM
same,IC50,[12],> 2000 nM
same,IC50,[13],> 2000 nM
same,IC50,[14],> 2000 nM
same,IC50,[15],> 2000 nM
same,IC50,[16],> 2000 nM
same,IC50,[17],> 2000 nM
same,IC50,[18],> 2000 nM
same,IC50,[19],> 2000 nM
same,IC50,[20],> 2000 nM
same,IC50,[21],> 2000 nM
same,IC50,[22],> 2000 nM
same,IC50,[23],> 2000 nM
same,IC50,[24],> 2000 nM
same,IC50,[25],> 2000 nM
same,IC50,[26],> 2000 nM
same,IC50,[27],> 2000 nM
same,IC50,[28],> 2000 nM
same,IC50,[29],> 2000 nM
same,IC50,[30],> 2000 nM
same,IC50,[31],> 2000 nM
same,IC50,[32],> 2000 nM
same,IC50,[33],> 2000 nM
same,IC50,[34],> 2000 nM
same,IC50,[35],> 2000 nM
same,IC50,[36],> 2000 nM
same,IC50,[37],> 2000 nM
same,IC50,[38],> 2000 nM
same,IC50,[39],> 2000 nM
same,IC50,[40],> 2000 nM
same,IC50,[41],> 2000 nM
same,IC50,[42],> 2000 nM
same,IC50,[43],> 2000 nM
CN(NC(=O)CC(=O)NN(C)C(=S)c1ccccc1)C(=S)c1ccccc1 [ELESCLOMOL],IC50,[1],7.58 nM
same,IC50,[2],187 nM
same,IC50,[3],> 200 nM
same,IC50,[4],20.7 nM
same,IC50,[5],24.9 nM
same,IC50,[6],19.7 nM
same,IC50,[7],28.8 nM
same,IC50,[8],8.25 nM
same,IC50,[9],> 200 nM
same,IC50,[10],104 nM
same,IC50,[11],24.7 nM
same,IC50,[12],65.6 nM
same,IC50,[13],> 200 nM
same,IC50,[14],9.93 nM
same,IC50,[15],22.5 nM
same,IC50,[16],5.16 nM
same,IC50,[17],126 nM
same,IC50,[18],9.82 nM
same,IC50,[19],> 200 nM
same,IC50,[20],4.14 nM
same,IC50,[21],70.3 nM
same,IC50,[22],16.7 nM
same,IC50,[23],> 200 nM
same,IC50,[24],14.1 nM
same,IC50,[25],> 200 nM
same,IC50,[26],9.09 nM
same,IC50,[27],28.8 nM
same,IC50,[28],54 nM
same,IC50,[29],14.7 nM
same,IC50,[30],7.09 nM
same,IC50,[31],23.5 nM
same,IC50,[32],5.69 nM
same,IC50,[33],49.8 nM
same,IC50,[34],12.7 nM
same,IC50,[35],> 200 nM
same,IC50,[36],111 nM
same,IC50,[37],2.92 nM
same,IC50,[38],21.6 nM
same,IC50,[39],13.3 nM
same,IC50,[40],17.6 nM
same,IC50,[41],12.9 nM
same,IC50,[42],78.6 nM
same,IC50,[43],> 200 nM
Cc1ccc(-n2nc(C(C)(C)C)cc2NC(=O)Nc2ccc(OCCN3CCOCC3)c3ccccc23)cc1 [DORAMAPIMOD],IC50,[1],> 10000 nM
same,IC50,[2],> 10000 nM
same,IC50,[3],> 10000 nM
same,IC50,[4],> 10000 nM
same,IC50,[5],> 10000 nM
same,IC50,[6],> 10000 nM
same,IC50,[7],> 10000 nM
same,IC50,[8],> 10000 nM
same,IC50,[9],> 10000 nM
same,IC50,[10],> 10000 nM
same,IC50,[11],> 10000 nM
same,IC50,[12],8200 nM
same,IC50,[14],> 10000 nM
same,IC50,[15],> 10000 nM
same,IC50,[16],> 10000 nM
same,IC50,[17],> 10000 nM
same,IC50,[18],> 10000 nM
same,IC50,[19],> 10000 nM
same,IC50,[20],> 10000 nM
same,IC50,[21],> 10000 nM
same,IC50,[22],> 10000 nM
same,IC50,[23],> 10000 nM
same,IC50,[24],> 10000 nM
same,IC50,[25],> 10000 nM
same,IC50,[26],> 10000 nM
same,IC50,[27],> 10000 nM
same,IC50,[28],> 10000 nM
same,IC50,[29],> 10000 nM
same,IC50,[30],> 10000 nM
same,IC50,[31],> 10000 nM
same,IC50,[32],> 10000 nM
same,IC50,[33],> 10000 nM
same,IC50,[34],> 10000 nM
same,IC50,[35],> 10000 nM
same,IC50,[36],> 10000 nM
same,IC50,[37],> 10000 nM
same,IC50,[38],> 10000 nM
same,IC50,[39],> 10000 nM
same,IC50,[40],> 10000 nM
same,IC50,[41],> 10000 nM
same,IC50,[42],> 10000 nM
same,IC50,[43],> 10000 nM
